Molecules are shown by their SMILES. ≈ marks a conversion by molar mass, not a printed value. Like-named read-outs stand apart in the source and are kept apart here.

Test [1] relates to MRSA ATCC 33591. In words: Resistance development over 17 serial passages at sub-MIC. The format is cell-based, Staphylococcus aureus. The note with it: at the 11th passage, constant up to the 17th passage. How it is done:
For the experiment, a method as described previously was used with slight modifications. Briefly, for the experiment, on day 1 the initial MICs of all test agents were determined using routine MIC experiment protocol as described earlier. Next day, bacterial cells (100 μL) from the wells with concentrations 2–4 fold less than the MIC value for each test agent were used to set up fresh mid-log phase cultures in MHB medium for setting up the MIC plate. This was repeated for a total of 17 sub-lethal treatments with each antimicrobial agent. For every passage, corresponding glycerol stocks (15% v/v) were made for each culture and were kept at −80 °C for future use.

For test [2], the system named is MRSA ATCC 33591. In words: Cell viability corresponding to membrane depolarization experiment. The format is cell-based, Staphylococcus aureus. The note with it: dye-loaded cells in HEPES-glucose buffer, 4 × MIC, 2 min incubation.
Method: Briefly, exponential phase cells grown in MHB were harvested by centrifugation, washed and re-suspended in respiration buffer (5 mM HEPES, 20 mM glucose, pH 7.2) to 2.5 × 10^6 CFU/mL. […] The dye-loaded cells (800 μL) were then treated with peptidomimetics at respective 1× and 4× MIC concentrations (2–20 μL) and consequent fluorescence increase after 2 min of addition was measured in a Shimadzu RF-5301 PC spectrofluorimeter. As controls IL, melittin and VAN were also assayed under identical conditions. […] The viability of dye-loaded cells corresponding to depolarization experiment at 4 × MIC concentration was also measured by plating the diluted aliquots onto BHI agar plates.
dye-loaded cells suspended in HEPES-glucose buffer (5 mM, 20 mM glucose, pH 7.2)
were incubated with different test agents for 2 min and subsequently diluted
appropriately and plated on BHI agar plates. The plates were incubated at 37 °C for 16-
18 h and colonies were counted. The experiment was repeated on two different days
and mean ± S.D. is presented here.
Test [3] has as its system MRSA ATCC 33591 biofilm. In words: Biofilm formation inhibition, alamar blue (AB) assay. It is filed as cell-based, Staphylococcus aureus. As to conditions: 24 h biofilm formation inhibition, 2.5 μg/mL. How it is done:
For the experiment, a protocol as described previously was used with slight modifications. Briefly, desired concentrations of the test agents in PBS were added to the wells of a 96-well plate (100 μL). Thereafter, overnight grown stationary phase MRSA ATCC 33591 culture (~4 × 10^5 CFU/mL) in TSB medium (supplemented with 0.25% glucose and 0.5% NaCl) was added to the 96-well plates (100 μL). The plates were incubated at 37 °C without shaking for 24 h. After 24 h, the used medium was discarded and the biofilms formed were washed with PBS once. Subsequently, CV and AB assays were performed to quantify biomass and viability respectively, as described below:
For AB assay, after washing the treated biofilms, a solution of 10% AB reagent in TSB medium (200 μL) was added to the wells of the plates. The plates were sonicated briefly in a bath sonicator (5 min) and kept at room temperature for 30 min in dark. After 30 min, fluorescence was measured by exciting the samples at 550 nm and collecting emission at 590 nm.
The experiments were repeated on two different days and on each day 6 wells were used for a single treatment. Mean ± S.E. for both CV assay and AB assay is presented here. Corresponding to CV and AB assay the viability of cells upon treatment was also evaluated. […] The agar plates were incubated at 37 °C for 16–24 h and CFUs were counted. […]
Background: The colour change of resazurin is a common sign of viable cells or microbes.

Test [4] deals with MRSA ATCC 33591. In words: microbe, parasite or virus in culture. The note with it: Staphylococcus aureus, MRSA ATCC 33591, read-out: Minimum inhibitory concentration, MIC. The format is cell-based, Staphylococcus aureus. The protocol:
An initial inoculum of mid-log phase 10^7 CFU/mL was used and MIC experiment was performed as described earlier. For serum/plasma stability assay a method as described previously was used with slight modifications. Briefly, 50 μL MHB medium containing desired concentration of test peptidomimetics was incubated with 50 µL mice plasma/fetal bovine serum for 3 h at 37 °C. After incubation, a 10 μL aliquot was taken out for MIC determination as described above. For the experiment, mid-log phase 2–5 × 10^5 CFU/mL were used as initial inoculum. For the growth control wells, an equivalent amount of plasma/FBS in the medium was also added to evaluate their effect on the viability of cells. A slight decrease in OD600 of cells incubated with mice plasma was observed compared to untreated growth control in MHB alone. The experiments were repeated on two different days and reproducible MIC values were observed.

Test [5] has as its system Methicillin-resistant S. epidermidis (ATCC 35984). In words: microbe, parasite or virus in culture. It is filed as cell-based, Staphylococcus epidermidis. The note with it: Staphylococcus epidermidis, ATCC 35984 / MRSE; MRSE ATCC 35984; MHB, 2–5 × 10^5 CFU/mL, 16–18 h, 37 °C, OD600; read-out: Minimum inhibitory concentration, MIC. In outline: (§1)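 Broth microdilution MIC: compounds serially 2-fold diluted in 0.2% BSA (0.01% acetic acid), mid-log bacteria in MHB added to 2–5 × 10^5 CFU/mL. Plates shaken at 180 rpm, 37 °C for 16–18 h; growth read as absorbance at 600 nm. Duplicates on at least three days.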

Test [6] concerns MRSA (ATCC 43300). In words: microbe, parasite or virus in culture. The format is cell-based, Staphylococcus aureus. As to conditions: Staphylococcus aureus, MHB, 2–5 × 10^5 CFU/mL, 16–18 h, 37 °C, OD600, read-out: Minimum inhibitory concentration, MIC. In outline:
as §1

Test [7] deals with S. aureus (ATCC 29213). In words: microbe, parasite or virus in culture. The format is cell-based, Staphylococcus aureus. The note with it: Staphylococcus aureus, ATCC29213, MHB, 2–5 × 10^5 CFU/mL, 16–18 h, 37 °C, OD600, duplicate, at least three days, read-out: Minimum inhibitory concentration, MIC. The procedure, abridged: as §1
Test [8] has as its system S. aureus (ISP479C). In words: microbe, parasite or virus in culture. The format is cell-based, Staphylococcus aureus. As to conditions: Staphylococcus aureus, MHB, 2–5 × 10^5 CFU/mL, 16–18 h, 37 °C, OD600, read-out: Minimum inhibitory concentration, MIC. The procedure, abridged:
as §1

For test [9], the system named is S. aureus (ATCC 25923). In words: microbe, parasite or virus in culture. The note with it: Staphylococcus aureus, ATCC25923, MHB, 2–5 × 10^5 CFU/mL, 16–18 h, 37 °C, OD600, read-out: Minimum inhibitory concentration, MIC. It is filed as cell-based, Staphylococcus aureus. In outline:
as §1

The subject of test [10] is MRSA (ATCC 33591). In words: microbe, parasite or virus in culture. The format is cell-based, Staphylococcus aureus. The note with it: Staphylococcus aureus, MHB, 2–5 × 10^5 CFU/mL, 16–18 h, 37 °C, OD600, read-out: Minimum inhibitory concentration, MIC. In outline: as §1

Consider `CN[C@H](CC(C)C)C(=O)N[C@H]1C(=O)N[C@@H](CC(N)=O)C(=O)N[C@H]2C(=O)N[C@H]3C(=O)N[C@H](C(=O)N[C@H](C(=O)O)c4cc(O)cc(O)c4-c4cc3ccc4O)[C@H](O)c3ccc(c(Cl)c3)Oc3cc2cc(c3O[C@@H]2O[C@H](CO)[C@@H](O)[C@H](O)[C@H]2O[C@H]2C[C@](C)(N)[C@H](O)[C@H](C)O2)Oc2ccc(cc2Cl)[C@H]1O` [VAN, vancomycin], for which the “fold increase in MIC” value in [1] is recorded as 8 fold. For the same compound, the “log reduction in viability relative to untreated control” value in test [2] is 0.6 log. The “% viable cells compared to untreated control (AB assay)” value in test [3] was below 1%. In addition, the MIC is 1.4 µg/mL (≈ 0.966 µM) in [4] (after 3 h pre-incubation at 37 °C with fetal bovine serum (50%, v/v), inoculum 2–5 × 10^5 CFU/mL, repeated on two days); 1.4 µg/mL (≈ 0.966 µM) in test [4] (after 3 h pre-incubation at 37 °C with mice plasma (50%, v/v), inoculum 2–5 × 10^5 CFU/mL, repeated on two days); 2.8 µg/mL (≈ 1.93 µM) in test [4] (initial inoculum 10^7 CFU/mL, mid-log phase); 2.8 µg/mL (≈ 1.93 µM) in [5]; 0.7 µg/mL (≈ 0.483 µM) in [6]; 0.7 µg/mL (≈ 0.483 µM) in test [7]. Moreover, the MIC was determined as 0.3 µg/mL (≈ 0.207 µM) in test [8], 1.4 µg/mL (≈ 0.966 µM) in test [9] and 1.4 µg/mL (≈ 0.966 µM) in [10].

The record behind these values is PMC5773577, “Novel Miniature Membrane Active Lipopeptidomimetics against Planktonic and Biofilm Embedded Methicillin-Resistant Staphylococcus aureus” (Scientific Reports, 2018).
